The results in this text go back to PubChem BioAssay (NCI).

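Briefly, cells in 96-well plates were exposed to five compound concentrations for 48 h, and endpoints were estimated by linear interpolation. GI50: concentration for 50% inhibition of growth. TGI marks complete inhibition of growth.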 Some results are limits rather than exact numbers.

What all share (experiment): NCI tumour cell line growth inhibition, 48 h
Test [1] relates to LOX IMVI melanoma.
Test [2] deals with NCI-H460 lung.
Test [3] deals with SK-MEL-2 melanoma.
Test [4] relates to KM12 colon.
Test [5] deals with HCC-2998 colon.
The test system of test [6] is A498 renal.
The subject of test [7] is OVCAR-4 ovarian.
In test [8] the test system is SK-OV-3 ovarian.
For test [9], the system named is IGROV1 ovarian.
Test [10] relates to MOLT-4 leukemia.

Consider `Cc1cc(I)cc(CN(C)CCCN2CCCCCCC2)c1O`, for which the GI50 in [1] is 16.2 µM; in test [2], 13.7 µM; in [3], 21.8 µM; in test [4], 14.2 µM; in test [5] it was 18.1 µM; in test [6], 17.2 µM. Besides, the GI50 is 19.7 µM in [7], 18.7 µM in [8], 15.4 µM in [9] and 3.7 µM in [10]. The TGI in test [1] worked out at 30.9 µM; in [2], 28.3 µM; in [3] it was 41.7 µM; in test [4], 31 µM; in [5], 36.8 µM; in test [6], 32.9 µM. Moreover, the TGI amounted to 58.5 µM in test [7], 35.9 µM in test [8], 32 µM in [9] and 19.9 µM in [10].

For `O=C(CNc1ccc(Cl)cc1)Nc1ccc(-c2nc3ccccc3s2)cc1`, the GI50 was 1.44 µM in [1]; 3.62 µM in test [2]; 8.96 µM in test [3]; 5.39 µM in test [4]; 2.12 µM in test [5]; 12.5 µM in test [6]. In addition, the GI50 in [7] was 2.78 µM; in test [8], 12 µM; in test [9] it was 5.79 µM; in test [10], 0.811 µM. For the same compound, the TGI in [1] worked out at 2.95 µM; in test [2] it was 12.7 µM; in [3], 30.8 µM; in test [4], 16.5 µM; in test [5], 4.24 µM; in [6], 25 µM. The TGI in test [7] is 19.4 µM; in test [8] it was greater than 78.6 µM; in [9] it was 12.9 µM; in test [10], greater than 26.6 µM.

As for `Cc1nn(-c2ccccc2)c2nc(N3CCOCC3)nnc12`, the TGI in test [1], in [2], in [3], in [4], in [5] and in test [6] was greater than 100 µM throughout. Also, the TGI in test [7], in test [8], in test [9] and in [10] was greater than 100 µM in each case.

Consider `Cc1ccc(S(=O)(=O)N(CC(=O)O)c2ccccc2)cc1`, for which the TGI in test [1], in test [2], in [3], in test [4], in test [5] and in test [6] was greater than 100 µM each time. Moreover, the TGI in test [7], in test [8], in test [9] and in [10] was greater than 100 µM in each case.

As for `CC(C)=CCNc1ncnc2c1ncn2C1OC(CO)C(O)C1O` (stereo not given), the GI50 in [1] is 0.353 µM; in [2], 4.02 µM; in test [3] it was 16.2 µM; in [4] it was 2.74 µM; in [5], 4.49 µM; in [6], 0.405 µM. The GI50 in test [7] is 0.793 µM; in test [8], 1.75 µM; in test [9], 0.573 µM; in [10], 0.457 µM. Also, the TGI is 1.5 µM in test [1]; greater than 345 µM in [2]; 334 µM in test [3]; greater than 630 µM in test [4]; 94.3 µM in test [5]; 1.51 µM in test [6]. Further, the TGI in test [7] is greater than 1000 µM; in test [8], 33.5 µM; in [9] it was 19.2 µM; in test [10], 3.82 µM.

Regarding `CCC(C)n1ncn(-c2ccc(N3CCN(c4ccc(OCC5COC(Cn6cncn6)(c6ccc(Cl)cc6Cl)O5)cc4)CC3)cc2)c1=O` (stereo not given), the GI50 in test [1] is 9.41 µM; in test [2] it was 9.62 µM; in [3], 13.8 µM; in test [4] it was 5.69 µM; in [5], 84.1 µM; in test [6] it was 10.8 µM. Besides, the GI50 in test [7] is 35.2 µM; in [8], 24.2 µM; in test [9], 82.5 µM; in test [10], greater than 100 µM. For the same compound, the TGI in test [1] is greater than 100 µM; in [2], greater than 100 µM; in [3], 68.9 µM; in [4], greater than 100 µM; in test [5], greater than 100 µM; in [6], greater than 100 µM. Moreover, the TGI in test [7], in [8], in test [9] and in [10] was greater than 100 µM each time.

Take `CC(CCC=O)CCOCc1ccccc1` (stereo not given): the TGI in test [1] was greater than 91.2 µM; in test [2], greater than 100 µM; in test [3], greater than 100 µM; in test [4] it was greater than 100 µM; in [5] it was greater than 100 µM; in test [6], greater than 100 µM. Also, the TGI is greater than 100 µM in [7], greater than 100 µM in [8], greater than 100 µM in [9] and greater than 61.6 µM in [10].

Turning to `Cc1ccc(C)c(C2=C(c3cn(C)c4ccccc34)C(=O)NC2=O)c1`, the GI50 in [1] is greater than 19.5 µM; in test [2] it was greater than 17.4 µM; in test [3], greater than 25 µM; in test [4] it was 12.6 µM; in [5] it was greater than 25 µM; in test [6] it was greater than 12.1 µM. Moreover, the GI50 in [7] was greater than 25 µM; in test [8], 15.1 µM; in [9], 24.8 µM; in test [10], 12.4 µM. In addition, the TGI in [1] is greater than 25 µM; in test [2] it was greater than 25 µM; in [3], greater than 25 µM; in [4] it was greater than 25 µM; in test [5], greater than 25 µM; in [6], greater than 22.8 µM. In addition, the TGI in test [7], in test [8], in test [9] and in test [10] was greater than 25 µM in each case.
